Experiment in all cases: NCI anticancer screen, dose series, 48 h
For assay [1], the system named is DLD-1 colon.
Assay [2] has as its system SNB-78 CNS.
Assay [3] has as its system KM20L2 colon.
Assay [4] relates to XF 498 CNS.
Assay [5] concerns DMS 114 small cell lung.
The test system of assay [6] is HOP-18 NSCLC.

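Cultured in 96-well plates, cells were exposed to test compound for 48 hours across five concentrations. Definition used: TGI = concentration required for complete inhibition of growth.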 Where only a bound is given, the exact number is not on record here.

`Cc1cc(=O)oc2cc3c(cc12)Oc1ccccc1O3`: the TGI in assay [1] is above 100 µM; in assay [2] it was above 100 µM; in assay [3], above 100 µM; in assay [4], above 10 µM; in assay [5], above 100 µM; in assay [6], above 100 µM.

On to `O=C(CN1CCN(c2ccccc2)CC1)N1CCc2c([nH]c3ccccc23)C1c1cccnc1` (configuration not stated), for which the TGI in assay [1] was above 100 µM; in assay [2] it was above 100 µM; in assay [3] it was above 100 µM; in assay [4], 71.8 µM; in assay [5], above 65 µM; in assay [6], above 100 µM.

Turning to `COc1nc2nccc-2c2occn12`, the TGI in assay [1], in assay [2], in assay [3], in assay [4], in assay [5] and in assay [6] was above 100 µM in each case.

For the compound `CCC12CCCC(=O)N1C(CO)C(c1ccccc1)O2` (configuration not stated), the TGI in assay [1], in assay [2], in assay [3], in assay [4], in assay [5] and in assay [6] was above 100 µM in each case.

Regarding `CCCCCCCCCc1cc(=O)c2ccc(O)cc2o1`, the TGI in assay [1], in assay [2], in assay [3], in assay [4], in assay [5] and in assay [6] was above 100 µM throughout.

In the case of `CCOC(=O)C(=O)Nc1c(C)cccc1C`, the TGI in assay [1], in assay [2], in assay [3], in assay [4], in assay [5] and in assay [6] was above 100 µM in each case.

`COc1ccc2oc3cccc(NCCN(C)C)c3c(=O)c2c1`: the TGI worked out at 27.5 µM in assay [1]; 36 µM in assay [2]; 22 µM in assay [3]; 28 µM in assay [4]; 27 µM in assay [5]; 24 µM in assay [6].

Regarding `CSc1nc2c(nc(N)n2C2OCC(O)C(O)C2O)c(=O)n1C` (configuration not stated), the TGI in assay [1], in assay [2], in assay [3], in assay [4], in assay [5] and in assay [6] was above 100 µM each time.

With `S=c1[nH]c2ccc(Br)cc2c(=S)n1-c1ccccc1`, the TGI in assay [1] is above 100 µM; in assay [2], above 100 µM; in assay [3], above 100 µM; in assay [4], 36.6 µM; in assay [5] it was 54.3 µM; in assay [6], 85.4 µM.

For the compound `CCCCCCCCCCCCCCCC(=O)OCC1OC(n2c(O)c(N=NC(N)=S)c3ccc([N+](=O)[O-])cc32)C(OC(C)=O)C1OC(C)=O` (configuration not stated), the TGI in assay [1], in assay [2], in assay [3], in assay [4], in assay [5] and in assay [6] was above 100 µM in each case.

In the case of `CC(=O)Oc1ccc(O)c(O)c1C/C=C(\C)CC/C=C(\C)CC/C=C(\C)CCC=C(C)C`, the TGI in assay [1] was 1.41 µM; in assay [2], 1.34 µM; in assay [3] it was 3.74 µM; in assay [4], 0.818 µM; in assay [5], 1.29 µM; in assay [6] it was 0.879 µM.

Turning to `COc1ccc(NC(=O)c2cc(OC)c(OC)c(OC)c2)cc1`, the TGI in assay [1], in assay [2], in assay [3], in assay [4], in assay [5] and in assay [6] was above 100 µM each time.

For the origin of these results see PubChem BioAssay (NCI).
